Laboratory results: patent US20260262643A1, “HERBICIDAL BENZOXAZINES” (FMC CORPORATION, priority 2022, published 2026)
Where two headings read alike, the source gives them in different places.

Legend:
[1] = tested on: wheat; assay: Test A postemergence; format: in vivo, Triticum aestivum; conditions: Triticum aestivum, post-emergence, 240 h, postemergence, 10 days, 0 to 100 scale (0 no effect, 100 complete control); for plant injury at 500 g/ha: 500 g ai/ha, visual injury, read-out: Plant response rating, Wheat; for plant injury at 125 g/ha: 125 g ai/ha, read-out: Wheat plant response rating
Summary of the method: (§1)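 Loam/sand soil; pre-em directed soil spray at planting, post-em spray at 1–2 leaf (2–10 cm). Compound in non-phytotoxic solvent + surfactant. Greenhouse 10 d; visual injury vs untreated, 0 = no effect, 100 = complete control.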

[2] = tested on: horseweed; assay: Test A postemergence; format: in vivo, Erigeron canadensis; conditions: Erigeron canadensis, post-emergence, 240 h, postemergence, 10 days, 0 to 100 scale (0 no effect, 100 complete control); for pest or weed control at 125 g/ha: 125 g ai/ha; for pest or weed control at 500 g/ha: 500 g ai/ha
Summary of the method: as §1

[3] = tested on: pigweed, palmer; assay: Test A preemergence; format: in vivo, Amaranthus palmeri; conditions: Amaranthus palmeri, pre-emergence, 240 h, read-out: Plant response rating, Pigweed, Palmer; for pest or weed control at 125 g/ha: 125 g ai/ha, visual injury after 10 days, 0 to 100 scale, 0 is no effect, 100 is complete control; for pest or weed control at 500 g/ha: 500 g ai/ha, 0 to 100 scale (0 no effect, 100 complete control), 10 days
Summary of the method: as §1

[4] = tested on: ragweed; assay: Test A preemergence; format: in vivo, Ambrosia artemisiifolia; conditions: Ambrosia artemisiifolia, pre-emergence, 240 h, read-out: Plant response rating, Ragweed; for pest or weed control at 125 g/ha: 125 g ai/ha, visual injury after 10 days, 0 to 100 scale, 0 is no effect, 100 is complete control; for pest or weed control at 500 g/ha: 500 g ai/ha, 0 to 100 scale (0 no effect, 100 complete control), 10 days
Summary of the method: as §1

[5] = tested on: blackgrass; assay: Test A postemergence; format: in vivo, Alopecurus myosuroides; conditions: Alopecurus myosuroides, post-emergence, 240 h; for pest or weed control at 125 g/ha: 125 g ai/ha; for pest or weed control at 500 g/ha: 500 g ai/ha
Summary of the method: as §1

[6] = tested on: kochia; assay: Test A postemergence; format: in vivo, Bassia scoparia; conditions: Bassia scoparia, post-emergence, 240 h, postemergence, 10 days, 0 to 100 scale (0 no effect, 100 complete control); for pest or weed control at 125 g/ha: 125 g ai/ha; for pest or weed control at 500 g/ha: 500 g ai/ha
Summary of the method: as §1

[7] = tested on: rice; assay: Test B flooded paddy test; format: in vivo, Oryza sativa; conditions: Oryza sativa, 312 h; 250 g ai/ha, Flood, 13 days, 0 to 100 scale (0 no effect, 100 complete control); read-out: Plant response rating, Rice
Summary of the method: (§2)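 Compound is introduced into paddy water covering soil by 3 cm, treating plants that have reached two leaves. Pots are kept flooded at that depth under greenhouse conditions. Assessment at 13 days gives a 0–100 visual control score.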

[8] = tested on: foxtail, giant; assay: Test A preemergence; format: in vivo, Setaria faberi; conditions: Setaria faberi, pre-emergence, 240 h, read-out: Plant response rating, Foxtail, Giant; for pest or weed control at 125 g/ha: 125 g ai/ha, visual injury after 10 days, 0 to 100 scale, 0 is no effect, 100 is complete control; for pest or weed control at 500 g/ha: 500 g ai/ha, 0 to 100 scale (0 no effect, 100 complete control), 10 days
Summary of the method: as §1

[9] = tested on: corn; assay: Test A preemergence; format: in vivo, Zea mays; conditions: Zea mays, pre-emergence, 240 h; for Corn plant response rating (crop injury, 0 = no effect, 100 = complete kill) at 125 g/ha: 125 g ai/ha, visual injury after 10 days, 0 to 100 scale, 0 is no effect, 100 is complete control; for Corn plant response rating (crop injury, 0 = no effect, 100 = complete kill) at 500 g/ha: 500 g ai/ha, 0 to 100 scale (0 no effect, 100 complete control), 10 days
Summary of the method: as §1

[10] = tested on: oat, wild; assay: Test A postemergence; format: in vivo, Avena fatua; conditions: Avena fatua, post-emergence, 240 h, postemergence, 10 days, 0 to 100 scale (0 no effect, 100 complete control); for pest or weed control at 500 g/ha: 500 g ai/ha, visual injury, read-out: Plant response rating, Oat, Wild; for pest or weed control at 125 g/ha: 125 g ai/ha, read-out: Oat, Wild plant response rating
Summary of the method: as §1

[11] = tested on: barnyardgrass; assay: Test B flooded paddy test; format: in vivo, Echinochloa crus-galli; conditions: Echinochloa crus-galli, 312 h, 250 g ai/ha, Flood, 13 days, 0 to 100 scale (0 no effect, 100 complete control); read-out: Plant response rating, Barnyardgrass
Summary of the method: as §2

[12] = tested on: soybean; assay: Test A preemergence; format: in vivo, Glycine max; conditions: Glycine max, pre-emergence, 240 h, read-out: Plant response rating, Soybean; for plant injury at 125 g/ha: 125 g ai/ha, visual injury after 10 days, 0 to 100 scale, 0 is no effect, 100 is complete control; for plant injury at 500 g/ha: 500 g ai/ha, 0 to 100 scale (0 no effect, 100 complete control), 10 days
Summary of the method: as §1

[13] = tested on: pigweed, palmer; assay: Test A postemergence; format: in vivo, Amaranthus palmeri; conditions: Amaranthus palmeri, post-emergence, 240 h, postemergence, 10 days, 0 to 100 scale (0 no effect, 100 complete control); for pest or weed control at 500 g/ha: 500 g ai/ha, visual injury, read-out: Plant response rating, Pigweed, Palmer; for pest or weed control at 125 g/ha: 125 g ai/ha, read-out: Pigweed, Palmer plant response rating
Summary of the method: as §1

[14] = tested on: oat, wild; assay: Test A preemergence; format: in vivo, Avena fatua; conditions: Avena fatua, pre-emergence, 240 h, read-out: Plant response rating, Oat, Wild; for pest or weed control at 125 g/ha: 125 g ai/ha, visual injury after 10 days, 0 to 100 scale, 0 is no effect, 100 is complete control; for pest or weed control at 500 g/ha: 500 g ai/ha, 0 to 100 scale (0 no effect, 100 complete control), 10 days
Summary of the method: as §1

[15] = visual injury, read-out: Plant response rating, Horseweed
[16] = postemergence, 10 days, visual injury, 0 to 100 scale (0 no effect, 100 complete control), read-out: Plant response rating, Blackgrass
[17] = visual injury, read-out: Plant response rating, Kochia
[18] = read-out: Horseweed plant response rating
[19] = postemergence, 10 days, 0 to 100 scale (0 no effect, 100 complete control), read-out: Blackgrass plant response rating
[20] = read-out: Kochia plant response rating

With `Cc1ncn(-c2ccc(C)c(C(=O)N3C[C@H](C)Oc4c(Cl)cccc43)c2)n1` (single isomer, unassigned) [Compound 74] the plant injury at 500 g/ha [1] was 80%, the pest or weed control at 125 g/ha [2, 15] was 0% and the pest or weed control at 500 g/ha [2, 15] was 0%. It also gave a pest or weed control at 125 g/ha [3] of 90%, a pest or weed control at 500 g/ha [3] of 100% and a pest or weed control at 125 g/ha [4] of 0%. The pest or weed control at 500 g/ha [4] was 100%, the pest or weed control at 125 g/ha [5, 16] was 70% and the pest or weed control at 500 g/ha ([5]; Postemergence, 0 to 100 scale, read-out: Plant response rating, Blackgrass) was 90%. For the same compound, the pest or weed control at 125 g/ha [6, 17] was 70%, the pest or weed control at 500 g/ha [6, 17] was 90% and the plant injury at 250 g/ha [7] was 20%. It also gave a pest or weed control at 125 g/ha [8] of 100%, a pest or weed control at 500 g/ha [8] of 100% and a Corn plant response rating (crop injury, 0 = no effect, 100 = complete kill) at 125 g/ha [9] of 40%. It also gave a Corn plant response rating (crop injury, 0 = no effect, 100 = complete kill) at 500 g/ha [9] of 90%, a pest or weed control at 500 g/ha [10] of 60% and a pest or weed control at 250 g/ha [11] of 10%. For the same compound, the plant injury at 125 g/ha [12] was 70%, the plant injury at 500 g/ha [12] was 100% and the pest or weed control at 500 g/ha [13] was 70%. It also gave a pest or weed control at 125 g/ha [14] of 60% and a pest or weed control at 500 g/ha [14] of 90%.

For `Cc1cccc2c1O[C@@H](C)CN2C(=O)c1cccc(-n2cnc(C3COC3)n2)c1` [Compound 109, [(2S)-2,3-Dihydro-2,8-dimethyl-4H-1,4-benzoxazin-4-yl][3-[3-(3-oxetanyl)-1H-1,2,4-triazol-1-yl]phenyl]methanone], the plant injury at 125 g/ha [1] was 40%, the plant injury at 500 g/ha [1] was 90% and the pest or weed control at 125 g/ha [2, 18] was 10%. For the same compound, the pest or weed control at 500 g/ha [2, 15] was 30%, the pest or weed control at 125 g/ha [3] was 90% and the pest or weed control at 500 g/ha [3] was 100%. It also gave a pest or weed control at 125 g/ha [4] of 40%, a pest or weed control at 500 g/ha [4] of 80% and a pest or weed control at 125 g/ha [5, 19] of 70%. For the same compound, the pest or weed control at 500 g/ha [5, 16] was 90%, the pest or weed control at 125 g/ha [6, 20] was 70% and the pest or weed control at 500 g/ha [6, 17] was 90%. For the same compound, the plant injury at 250 g/ha [7] was 0%, the pest or weed control at 125 g/ha [8] was 100% and the pest or weed control at 500 g/ha [8] was 100%. It also gave a Corn plant response rating (crop injury, 0 = no effect, 100 = complete kill) at 125 g/ha [9] of 40%, a Corn plant response rating (crop injury, 0 = no effect, 100 = complete kill) at 500 g/ha [9] of 70% and a pest or weed control at 125 g/ha [10] of 80%. It also gave a pest or weed control at 500 g/ha [10] of 80%, a pest or weed control at 250 g/ha [11] of 40% and a plant injury at 125 g/ha [12] of 30%. The plant injury at 500 g/ha [12] was 80%, the pest or weed control at 125 g/ha [13] was 60% and the pest or weed control at 500 g/ha [13] was 60%. It also gave a pest or weed control at 125 g/ha [14] of 50% and a pest or weed control at 500 g/ha [14] of 90%.

`CCc1ncn(-c2ccc(OC)c(C(=O)N3C[C@H](C)Oc4c(Cl)cccc43)c2)n1` [Compound 88, [(2S)-8-Chloro-2,3-dihydro-2-methyl-4H-1,4-benzoxazin-4-yl][5-(3-ethyl-1H-1,2,4-triazol-1-yl)-2-methoxyphenyl]methanone] showed a plant injury at 125 g/ha [1] of 40%, a plant injury at 500 g/ha [1] of 90% and a pest or weed control at 125 g/ha [2, 18] of 40%. For the same compound, the pest or weed control at 500 g/ha [2, 15] was 90%, the pest or weed control at 125 g/ha [3] was 100% and the pest or weed control at 500 g/ha [3] was 100%. It also gave a pest or weed control at 125 g/ha [4] of 60%, a pest or weed control at 500 g/ha [4] of 100% and a pest or weed control at 125 g/ha [5, 19] of 60%. For the same compound, the pest or weed control at 500 g/ha [5, 16] was 90%, the pest or weed control at 125 g/ha [6, 20] was 90% and the pest or weed control at 500 g/ha [6, 17] was 100%. For the same compound, the plant injury at 250 g/ha [7] was 10%, the pest or weed control at 125 g/ha [8] was 100% and the pest or weed control at 500 g/ha [8] was 100%. The Corn plant response rating (crop injury, 0 = no effect, 100 = complete kill) at 125 g/ha [9] was 40%, the Corn plant response rating (crop injury, 0 = no effect, 100 = complete kill) at 500 g/ha [9] was 40% and the pest or weed control at 125 g/ha [10] was 90%. For the same compound, the pest or weed control at 500 g/ha [10] was 90%, the pest or weed control at 250 g/ha [11] was 45% and the plant injury at 125 g/ha [12] was 50%. For the same compound, the plant injury at 500 g/ha [12] was 100%, the pest or weed control at 125 g/ha [13] was 90% and the pest or weed control at 500 g/ha [13] was 90%. For the same compound, the pest or weed control at 125 g/ha [14] was 90% and the pest or weed control at 500 g/ha [14] was 90%.
